From US20170266269A1, “METHODS OF IDENTIFYING ANTIGENS FOR VACCINES” (UNIVERSITY OF WASHINGTON THROUGH ITS CENTER FOR …, priority 2014, published 2017)

What was measured:
[1] = tested on: human peripheral blood mononuclear cells (PBMC); assay: IL-10 ELISPOT of human PBMC with epitope peptides; format: cell-based; conditions: CD105 and HIF1α peptides
Source text: (§1) A plurality of immunological assays may be used with the methods or processes described herein to test at least one peptides of putative epitopes or nucleic acids encoding peptides of putative epitopes to determine if the peptide of the putative epitope elicits an immune response, often the sub-type of the immune response may be determined, often the immunologic assay may be an ELISPOT assay, an ELISA assay, a multiplex assay or the like. For example, a suitable immunologic assay may include performing an ELISPOT assay using cells derived from donors. The ELISPOT assay may include isolating peripheral blood mononuclear cells (PBMC) from at least 10, preferably at least 40, subjects, often the subjects are human donors. The amount of at least one cytokine production in cells following administration of the peptides of putative epitopes may be determined by the ELISPOT assay. The at least one cytokine may be IFNγ and/or IL-10 such that data indicating cytokine production may represent a positive or a negative response of cells to the peptide sequence of the putative epitope. In some cases, positive responses may have a statistically significant difference (p<0.05) between a mean number of spots from five replicates in the experimental wells and the mean number from no antigen control wells. In other cases, negative responses may not have a statistically significant difference (p<0.05) between a mean number of spots from five replicates in the experimental wells and the mean number from no antigen control wells.
(§2) This example describes the identification of unique and discrete amino acid sequences of antigenic epitopes from breast cancer stem cell and epithelial mesenchymal transformation peptides CD105 and HIF-1a, both of which are promiscuous MHC class II binders and unexpectedly stimulate high (magnitude and incidence) interferon gamma (IFNγ) and low or no interleukin (IL)-10 responses from human peripheral blood mononuclear cells (PBMC). CD105 and HIF1α have been juxtaposed to allow construction of extended epitope sequences for inclusion in either a peptide or DNA plasmid-based multi-antigen polyepitope CD4+ T-cell vaccine targeting breast cancer stem cell and epithelial mesenchymal transformation antigens in cancer patients.
(§3) […] peptides, predicted to bind promiscuously to human MHCII, were selected using web-based algorithms according to the methods described herein. Peripheral blood mononuclear cells (PBMC) from 20 female breast cancer patients were cryopreserved and evaluated by ELISPOT for antigen specific IFNγ or IL-10 secretion, according to our published methods. […] Data is reported as the mean number of spots for each experimental antigen minus the mean number of spots detected in no antigen control wells (corrected spots per well: CSPW). Positive responses were defined by a statistically significant difference (p<0.05) between the mean number of spots from five replicates in the experimental wells and the mean number from no antigen control wells for an individual (see FIG. 15).
(§4) The unpaired, two-tailed Student's t-test, Fischer's exact test or X^2 test was used to evaluate differences between groups. […] All statistical analyses were performed using GraphPad Prism 5.04 (e.g., GraphPad Software).

[2] = tested on: human peripheral blood mononuclear cells (PBMC); assay: IFNγ ELISPOT of human PBMC with epitope peptides; format: cell-based; conditions: CD105 and HIF1α peptides
Source text: as §1, §2, §3, §4

Substance	IL-10 response [1]	IFNγ response [2]
CD105 p626-642: peptide at the C-terminus of CD105 (VVAVAAPASSESSSTNH; UniProt P17813 626-642, looked up, fragment)	low or no	strong
GHKEAHILRVLPGHSAGPRTVTV [CD105 p214-236]	low or no	strong
LHLAYNSSLVTFQEP [CD105 p116-130]	low or no	strong
MRLTISYLRVRKLLDAGDLDIED [HIF1α p60-82]	no or low	strong
VLLVLSVNSSVFLHLQALGI [CD105 p 96-114]	low or no	strong
YELAHQLPLPHNVSSH [HIF1α p38-53]	no or low	strong
